These results are taken from patent US12365686B2, “Compound as porcupine inhibitor and use thereof” (JIANGSU KANION PHARMACEUTICAL CO., LTD., priority 2019, dated 2025).

The test system of one data set is Capan-2 cells. In words: Anti-proliferative activity on Capan-2 cells. Conditions: Homo sapiens, Capan-2, 120 h; 5 days, CellTiter-Glo. In kind it is cell-based. On the procedure: 2. Assay of Anti-Proliferative Activity on Capan-2 Cells
Capan-2 cells were planted in a white 96-well plate with 80 μL of cell suspension per well, which contained 5000 Capan-2 cells. The cell plate was placed in a carbon dioxide incubator for culture overnight.
The assay compound was serially diluted 3-fold with a discharge gun to the 9th concentration, that is, from 200 μM to 30 nM, in duplicate. 78 μL of medium was added to the middle plate, and then 2 μL of the serially diluted compound was transferred to each well of the middle plate according to the corresponding position. After mixing, 20 μL of the mixture was transferred to each well of the cell plate. The cell plate was incubated in a carbon dioxide incubator for 5 days. Another cell plate was prepared, and read on the day of drug addition. The signal value was used as the maximum value (The value of Max in the equation below) in data analysis. 25 μL of chemiluminescence detection reagent for cell viability was added to each well of this cell plate, and this cell plate was incubated at room temperature for 10 minutes to stabilize the luminescence signal. A multi-label analyzer was used to read results.
After the cell plate was cultured for 5 days, 25 μL of Promega CellTiter-Glo reagent was added to each well of the cell plate. The cell plate was incubated at room temperature for 10 minutes to stabilize the luminescence signal. A multi-label analyzer was used to read results.
The value of IC50 can be obtained by curve fitting. Table 2 provides the inhibitory activity of the compounds of the present disclosure on Capan-2 cell proliferation.
On the technique in general: ATP-based viability assays read luminescence as a measure of living cells.

Data set [1] deals with human pancreatic cancer Capan-2 xenograft tumor. Kind of data set: In vivo drug efficacy on Capan-2 transplanted tumor in nude mice. Conditions: BID, Capan-2 Xenograft model. On the procedure: 3. Assay of In Vivo Drug Efficacy on Capan-2 Transplanted Tumor in Nude Mice
Capan-2 cells were cultured in McCoy's 5A medium, containing 10% fetal bovine serum FBS, in a 37° C. incubator with 5% CO2. Tumor cells were collected after passaging and growing to a suitable concentration and during the logarithmic growth phase. The cells resuspended in McCoy's 5A medium were counted and the cell suspension was adjusted to a concentration of 2×10^7/mL for inoculation.
Establishment of human pancreatic cancer Capan-2 xenograft tumor. Cells were collected and the concentration was adjusted to 2×10^7 (resuspend with McCoy's 5A medium to a cell suspension containing 50% Martigel). Under aseptic conditions, 0.1 mL of tumor cells was injected subcutaneously into the right back of the mouse, and the number of cells inoculated per mouse was 2×10^6. After the tumor was grown to a certain size, digital vernier calipers was used to measure the length (a) and width (b) of the tumor, and the tumor volume was calculated. The calculation formula of tumor volume (TV) was: TV=a×b^2/2.
Capan-2 tumor cells were inoculated. When the tumor was grown to about 150 cubic millimeters, mice were divided into groups with 6 mice in each group. The day of grouping was regarded as day 0, and the drug was administered on the day of grouping. During the assay, the animal's body weight and tumor size were measured twice a week, and the animal's clinical symptoms were observed and recorded every day. For each administration, the most recently weighed animal body weight was referred to.
The evaluation index of anti-tumor activity is relative tumor proliferation rate T/C (%), wherein T/C (%)>40% means ineffective, and T/C (%)<40% and statistically P<0.05 means effective. The calculation formula of T/C (%) is: T/C (%)=(TRTV/CRTV)×100%. TRTV is relative tumor volume of the treatment group, and CRTV is relative tumor volume of the negative control group. TGI (%)^b tumor inhibition rate=(average tumor volume or weight of negative control group-average tumor volume or weight of administration group)/average tumor volume or weight of negative control group×100%. TGI (%)^a=[(1−(average tumor volume of a certain administration group at the time of measurement-average tumor volume of the administration group at the beginning of the administration))/(average tumor volume of vehicle control group at the time of measurement-average tumor volume of the vehicle control group at the beginning of the administration)]×100%.

Data set [2] is described as follows: Pharmacokinetic evaluation of compounds in mice. To be noted: mouse, plasma, male CD-1 mice; for clearance / bioavailability / half-life / Vd: IV 0.5 mg/kg; for bioavailability / AUC(0-t): PO 2.5 mg/kg; for half-life: read-out: T1/2 IV (converted); for Vd: read-out: Vdss; for AUC(0-t): read-out: AUC0-last PO; for Cmax: single dose, route not stated (IV 0.5 mg/kg, PO 2.5 mg/kg). In kind it is in vivo. The protocol:
Assay 4: Pharmacokinetic Evaluation of Compounds
Assay purpose: Pharmacokinetics of compounds in […] mice was assayed.
CD-1 mice (male, 7-9 weeks old, Shanghai Slack)
The pharmacokinetic characteristics of rodents after intravenous (IV) and oral (PO) administration of compounds were assayed by standard protocols. In the assay, mice were given a single intravenous injection and oral administration. The vehicle for intravenous injection was water. The oral vehicle was 0.5% hypromellose. Four male CD-1 mice were used in this project. Two mice were administered intravenously at a dose of 0.5 mg/kg, and plasma samples were collected at 0 h (before administration) and 0.083, 0.25, 0.5, 1, 2, 4, 8, and 24 h after administration. The other two mice were orally administered by gavage at a dose of 2.5 mg/kg, and plasma samples were collected at 0 h (before administration) and 0.25, 0.5, 1, 2, 4, 8, and 24 h after administration. Whole blood samples within 24 hours were collected, and centrifuged at 3000 g for 15 minutes. The supernatant was separated to obtain a plasma sample, and protein was precipitated by adding 4 times volume of acetonitrile solution containing internal standard. The mixture was centrifuged to obtain a supernatant, and an equal volume of water was added to the obtained supernatant. The mixture was then centrifuged to obtain a supernatant for injection. The blood drug concentration was quantitatively analyzed by LC-MS/MS analysis method, and pharmacokinetic parameters were calculated, such as peak concentration (Cmax), clearance rate (CL), half-life (T1/2), […] (Vdss), area under the drug-time curve (AUC0-last), and bioavailability (F), etc.
The assay results are shown in Table 4: The compounds of the present disclosure have good pharmacokinetic properties.

Data set [3] concerns STF reporter gene for WNT pathway (Porcupine of the Wnt signaling pathway). Kind of data set: Inhibitory activity on Super-Top-Flash (STF) reporter gene. The class given is cell-based. Conditions: HEK293 STF and L wnt3A cells 1:1, 24 hours, Bright-Glo. On the procedure:
1. Assay of Inhibitory Activity on Super-Top-Flash (STF) Reporter Gene
HEK293 STF and L wnt3A cells were planted at a ratio of 1:1 in a white 96-well plate with 80 μL of cell suspension per well, which contained 20,000 HEK293 STF cells and 20,000 L wnt3A cells. The cell plate was placed in a carbon dioxide incubator for culture overnight.
The assay compound was serially diluted 5-fold with a discharge gun to the 8th concentration, that is, from 400 μM to 5.12 nM, in duplicate. 78 μL of medium was added to the middle plate, and then 2 μL of the serially diluted compound was transferred to each well of the middle plate according to the corresponding position. After mixing, 20 μL of the mixture was transferred to each well of the cell plate. The cell plate was placed in a carbon dioxide incubator for 24 hours.
100 μL of Promega Bright-Glo reagent was added to each well of the cell plate, and the cell plate was incubated at room temperature for 10 minutes to stabilize the luminescence signal. A multi-label analyzer was used to read results.
The original data of the multi-label analyzer was used for calculation, and the value of IC50 can be obtained by curve fitting. Table 1 provides data of the inhibitory activity of the compounds of the present disclosure on the Wnt signaling pathway.
On the technique in general: A reporter such as luciferase makes a cellular process visible.

Broadly, the IC50 is the concentration at which inhibition is half-maximal. A lower IC50 goes with higher potency. As a reminder, the clearance is the volume of plasma or blood freed of the substance per unit of time. High values mean a high capacity for elimination, low ones a low capacity for elimination. One may read the bioavailability as the share of a dose that reaches the circulation, judged against a reference dose that is usually intravenous. By Cmax is commonly meant the maximum level reached in the sampled fluid or tissue.

Where a name gives a salt, the structure may show the parent alone.

The molecule `Cc1cc(-c2ncc(CNc3nccn4c(-c5cc(F)cc(F)c5)cnc34)cc2OCCN(C)C)ccn1` [Compound 33] came in with an IC50 in the data set with Capan-2 cells of 2.3 nM. In data set [1] (5 mg/Kg, 31 days), this molecule showed a T/C % of 17.71% and a TGI % of 92.6%. For the same molecule, in data set [2], the clearance was 35.1 mL/min/kg, the bioavailability worked out at 37.4%, the half-life was 3.69 h and the Vd amounted to 9.52 L/kg. In data set [2], the AUC(0-t) is 0.975 µM·h and the highest level (Cmax) was 107 nM.
The molecule `Cc1cc(-c2ncc(CNc3nccn4c(-c5cc(F)cc(F)c5)cnc34)cc2C)ccn1` [Compound 30 (hydrochloride)] displayed an IC50 in data set [3] of 0.52 nM. The same molecule registered an IC50 with Capan-2 cells of 0.71 nM. In data set [1] (2.5 mg/Kg), this molecule came in with a T/C % of 40.18% and a TGI % of 66.67%. For the same molecule, in data set [1] (5 mg/Kg, 31 days), the T/C % is given as 25.31% and the TGI % is 84.93%. In addition, in data set [2], the clearance was determined as 5.75 mL/min/kg, the bioavailability is 98.8%, the half-life is 2.5 h and the Vd was 0.666 L/kg. In data set [2], the AUC(0-t) came to 16.2 µM·h and the concentration peaked (Cmax) at 2580 nM.
As for `Cc1cc(-c2ncc(CNc3nccn4c(-c5cc(F)cc(F)c5)cnc34)cc2F)ccn1` [Compound 36 (formate)], in the data set with Capan-2 cells, the midpoint of inhibition, the IC50, lay at 0.21 nM. Further, in data set [1] (5 mg/Kg, 31 days), the T/C % is on record as 21% and the TGI % is 88.86%. Besides, in data set [2], the clearance came to 6.5 mL/min/kg, the bioavailability came to 50.6%, the half-life was 3.05 h and the Vd turned out to be 1.35 L/kg. In data set [2], the AUC(0-t) was 7.23 µM·h and the Cmax worked out at 980 nM.
In data set [3], `Cc1cc(-c2ncc(CNc3nccn4c(-c5ccccc5)cnc34)cc2C)ccn1` [Compound 1] had an IC50 of 0.12 nM. The same molecule displayed a 50% inhibitory concentration (IC50) with Capan-2 cells of 0.71 nM. In data set [1] (5 mg/Kg, 31 days), this molecule had a T/C % of 21.58% and a TGI % of 96.7%. Moreover, in data set [2], the clearance amounted to 5.05 mL/min/kg, the bioavailability came out at 76.3%, the half-life was 2.23 h and the Vd amounted to 0.633 L/kg. In addition, in data set [2], the AUC(0-t) stood at 16.5 µM·h and the concentration peaked (Cmax) at 3030 nM.
In the case of `Cc1cc(-c2ncc(CNc3nccn4c(-c5ccccc5)ncc34)cc2C)ccn1` [Compound 11], the IC50 in data set [3] amounted to 0.05 nM. Besides, in data set [1] (5 mg/Kg, 31 days), the T/C % is 31.29% and the TGI % was determined as 82.8%.
